# Patent US7807781B2, “Inhibitors of serine protease activity and their use in methods and compositions for treatment of viral infections” (The Regents of the University of Colorado, priority 1999, dated 2010)
# Where two headings read alike, the source gives them in different places.
# Assays:
# NF-κB = assay: IL-18-induced NF-κB expression; type: cell-based; conditions: compared with IL-18 alone (lane 4)
# [1] = tested on: HIV-1 production in U1 cells; assay: U1 monocytic cell assay, NaCl (hyperosmolarity)-induced HIV-1 p24 antigen; type: cell-based
# [2] = tested on: HIV-1 production in U1 cells; assay: U1 monocytic cell assay, IL-6-induced HIV-1 p24 antigen; type: cell-based; conditions: for p24 antigen: 100 ng/ml IL-6
# [3] = tested on: HIV-1 strain A018A in MAGI-CCR-5 cells; type: cell-based; conditions: for mean positive cell count: +HIV-1; for inhibition of MAGI-CCR-5 cell early infection events: compared to HIV-1 alone
# [4] = tested on: lymphocyte-tropic HIV-1 strain A018A in PBMC; type: cell-based
# U1 cells = assay: U1 cell proliferation and viability (hemacytometer, trypan blue exclusion); type: cell-based, human; conditions: 5 mg/ml AAT, 48 hrs
# Procedure: To evaluate the effect of AAT on U1 cell proliferation and viability, 3 experiments are performed in the presence or absence of 5 mg/ml AAT. U1 cells are added at 1×10^6 cells per ml and cultured for 48 hrs. Following incubation, cells are quantified using a hemacytometer. The mean±SEM cell concentrations in control and AAT-containing cultures are 2.5×10^6±0.5×10^6 and 2.4×10^6±0.3×10^6 respectively. […] For all cultures, cell viability by trypan blue exclusion is >95%. The lack of toxicity is illustrated in FIG. 13.
# [5] = tested on: HIV-1 production in U1 cells; assay: U1 monocytic cell assay, IL-18-induced HIV-1 p24 antigen; type: cell-based; conditions: for p24 production: 0.5 nM IL-18, 48 hr
# Source text: U1 monocytic cell assay. U1 cells are obtained from the AIDS Research and Reference Reagent Program, National Institute of Allergy and Infectious Diseases, NIH. U1 cells are maintained in T-175 polystyrene flasks (Falcon, Becton Dickinson, Franklin Lakes, N.J.) in medium and used when in log phase growth. Cells are counted in a hemacytometer, examined for viability by Trypan blue exclusion (>95% for all experiments) and resuspended in fresh medium at 2×10^6 per ml. Two-hundred fifty […] are added to wells of 24-well polystyrene tissue culture plates (Falcon), followed by the addition of medium or AAT to produce the final concentration to be tested in a volume of […]. After 1.0 hr of incubation (37° C., 5% CO2), 50 ml of medium (control) or stimulus diluted in medium are added to wells to produce the final concentration of stimulus to be tested. The final culture volumes are […] and contained 1×10^6 cells per ml. After 48 hr of incubation (37° C. and 5% CO2) 50 ml of 10% (vol/vol) Triton-X-100 (Fisher Scientific, Fair Lawn, N.J.) is added to each culture (final concentration of 1% vol/vol), and cultures are frozen and thawed once. This is followed by assay for HIV-1 p24 antigen by ELISA with a lower limit of detection of 31 pg/ml (NCI-Frederick Cancer Research and Development Center, Frederick, Md.). The disruption of cells due to the addition of Triton-X-100 and the freeze-thaw cycle produced cell lysates and enabled assessment of total (secreted and cell-associated) production of p24 antigen.
# Data are presented as means±SEM. Group means are compared by ANOVA using Fisher's least significant difference. For data expressed as percent change, the values for p24 in control cultures (medium alone) are subtracted from those for each culture-containing stimulus. The p24 concentrations in cultures conducted in the presence of stimulus alone are set at 100%. Percent p24 in cultures containing stimulus and AAT are calculated by dividing the measured p24 by that present in cultures containing stimulus alone. The resultant fraction is expressed as a percent.
# The U1 cell line is derived from human monocytic U937 cells into which 2 copies of HIV-1 provirus are incorporated into host genome. Exposing U1 cells to pro-inflammatory cytokines such as IL-18, IL-1, IL-6 and TNF, phorbol esters or hyperosmolarity results in the induction of HIV-1 as assessed by p24 antigen. Stimulation of U1 cells with 0.5 nM IL-18 induced large amounts of p24 antigen after 48 hr of incubation in 3 separate experiments. U1 cells cultured in medium alone (control) contained a mean of 41.3±11.5 pg/ml p24 antigen, which is increased 150-fold to 6,235±1,775 pg/ml p24 following stimulation with IL-18. […] At 1, 2 and 3 mg/ml AAT, the percent reductions observed compared to stimulation with IL-18 alone are 65±1.8, 93±3.0 and 98±1%, respectively.
# [6] = tested on: HIV-1 production in U1 cells; assay: U1 monocytic cell assay, LPS-induced HIV-1 p24 antigen; type: cell-based; conditions: for p24 antigen: 500 ng/ml LPS, 48 hrs
substance,measurement,setting,value
AAT: Alpha-1-antitrypsin purified from the blood of healthy volunteers to single-band homogeneity,IL-18-induced NF-κB expression,NF-κB,reduced
same,NaCl-induced 26-fold increase in p24 concentration,"[1]; 60 mM NaCl, 5 mg/ml AAT",completely inhibited
same,mean p24 level,"[1]; 60 mM NaCl, AAT 0.1 mg/ml","11,054±3,231 pg/ml"
same,mean p24 level,"[1]; 60 mM NaCl, AAT 0.5 mg/ml","7,363±485 pg/ml"
same,mean p24 level,"[1]; 60 mM NaCl, AAT 1.0 mg/ml","5,657±48 pg/ml"
same,mean p24 level,"[1]; 60 mM NaCl, AAT 3.0 mg/ml","1,919±594 pg/ml"
same,mean p24 level,"[1]; 60 mM NaCl, AAT 4.0 mg/ml",425 ± 32 pg/mL
same,mean p24 level,"[1]; 60 mM NaCl, AAT 5.0 mg/ml",266 ± 26 pg/mL
same,percent inhibition of NaCl-induced p24,[1]; AAT 3.0 mg/ml,76%
same,percent inhibition of NaCl-induced p24,[1]; AAT 4.0 mg/ml,98.3%
same,percent inhibition of NaCl-induced p24,[1]; AAT 5.0 mg/ml,100%
same,p24 antigen,[2]; AAT 0.1 mg/ml,"6,228±2,129 pg/ml"
same,p24 antigen,[2]; AAT 0.5 mg/ml,"3,992±1,987 pg/ml"
same,p24 antigen,[2]; AAT 1 mg/ml,"3,850±1,943 pg/ml"
same,p24 antigen,[2]; AAT 2 mg/ml,"2,597±1,253 pg/ml"
same,p24 antigen,[2]; AAT 3 mg/ml,"2,155±1,085 pg/ml"
same,p24 antigen,[2]; AAT 4 mg/ml,"1,838±881 pg/ml"
same,p24 antigen,[2]; AAT 5 mg/ml,"1,213±668 pg/ml"
same,mean percent reduction of IL-6-induced p24,[2]; AAT 3 mg/ml,80%
same,mean percent reduction of IL-6-induced p24,[2]; AAT 4 mg/ml,88%
same,mean percent reduction of IL-6-induced p24,[2]; AAT 5 mg/ml,100%
same,mean positive cell count,[3]; AAT 0.1 mg/ml,74±13
same,mean positive cell count,[3]; AAT 1.0 mg/ml,75±17
same,mean positive cell count,[3]; AAT 3.0 mg/ml,45±12
same,mean positive cell count,[3]; AAT 4.0 mg/ml,28±9
same,mean positive cell count,[3]; AAT 5.0 mg/ml,21±12
same,inhibition of MAGI-CCR-5 cell early infection events,[3]; AAT 2.0 mg/ml,23%
same,inhibition of MAGI-CCR-5 cell early infection events,[3]; AAT 3.0 mg/ml,41%
same,inhibition of MAGI-CCR-5 cell early infection events,[3]; AAT 4.0 mg/ml,66%
same,inhibition of MAGI-CCR-5 cell early infection events,[3]; AAT 5.0 mg/ml,76%
same,effect on p24 antigen production of AAT present during infection only,"[4]; AAT removed, 4 days of culture in medium alone",did not affect
same,p24 produced,"[4]; PBMC infected in absence of AAT, 4 days with AAT 0.1 mg/ml","8,687±1,304 pg/ml"
same,p24 produced,"[4]; PBMC infected in absence of AAT, 4 days with AAT 0.5 mg/ml","7,392±1,299 pg/ml"
same,p24 produced,"[4]; PBMC infected in absence of AAT, 4 days with AAT 1.0 mg/ml","6,613 pg/ml"
same,p24 produced,"[4]; PBMC infected in absence of AAT, 4 days with AAT 2.0 mg/ml","6,258±1,772 pg/ml"
same,p24 produced,"[4]; PBMC infected in absence of AAT, 4 days with AAT 3.0 mg/ml","5,275±316 pg/ml"
same,p24 produced,"[4]; PBMC infected in absence of AAT, 4 days with AAT 4.0 mg/ml","4,725±101 pg/ml"
same,p24 produced,"[4]; PBMC infected in absence of AAT, 4 days with AAT 5.0 mg/ml","3,508 pg/ml"
same,reduction in p24 antigen compared to control cultures,"[4]; PBMC infected in absence of AAT, AAT 4.0 mg/ml",22%
same,reduction in p24 antigen compared to control cultures,"[4]; PBMC infected in absence of AAT, AAT 5.0 mg/ml",46%
same,p24 produced,"[4]; PBMC infected in presence of 3 mg/ml AAT, 4 days with AAT 0.1 mg/ml","6,620±2,026 pg/ml"
same,p24 produced,"[4]; PBMC infected in presence of 3 mg/ml AAT, 4 days with AAT 0.5 mg/ml","6,047±1,322 pg/ml"
same,p24 produced,"[4]; PBMC infected in presence of 3 mg/ml AAT, 4 days with AAT 1.0 mg/ml","6,014±2,055 pg/ml"
same,p24 produced,"[4]; PBMC infected in presence of 3 mg/ml AAT, 4 days with AAT 2.0 mg/ml","2,516±345 pg/ml"
same,p24 produced,"[4]; PBMC infected in presence of 3 mg/ml AAT, 4 days with AAT 3.0 mg/ml","3,360±371 pg/ml"
same,p24 produced,"[4]; PBMC infected in presence of 3 mg/ml AAT, 4 days with AAT 4.0 mg/ml","2,743±316 pg/ml"
same,p24 produced,"[4]; PBMC infected in presence of 3 mg/ml AAT, 4 days with AAT 5.0 mg/ml","2,713±645 pg/ml"
same,reduction in p24 production compared to control cultures,"[4]; PBMC infected in presence of 3 mg/ml AAT, AAT 2.0 mg/ml",71%
same,reduction in p24 production compared to control cultures,"[4]; PBMC infected in presence of 3 mg/ml AAT, AAT 3.0 mg/ml",61%
same,reduction in p24 production compared to control cultures,"[4]; PBMC infected in presence of 3 mg/ml AAT, AAT 4.0 mg/ml",65%
same,reduction in p24 production compared to control cultures,"[4]; PBMC infected in presence of 3 mg/ml AAT, AAT 5.0 mg/ml",67%
same,Maximal p24 reduction in PBMC exposed to AAT for 4 days,[4]; cells infected in the absence of AAT,46%
same,Maximal p24 reduction in PBMC exposed to AAT for 4 days,[4]; cells infected in the presence of AAT,71%
same,cell viability by trypan blue exclusion,U1 cells,> 95%
same,mean±SEM cell concentration after culture,U1 cells; 1×10^6 cells per ml added initially,2.4×10^6±0.3×10^6 cells per ml
same,p24 production,[5]; AAT 0.1 mg/ml,"6,879±207 pg/ml"
same,p24 production,[5]; AAT 0.5 mg/ml,"3,687±968 pg/ml"
same,p24 production,[5]; AAT 1 mg/ml,"2,029±625 pg/ml"
same,p24 production,[5]; AAT 2 mg/ml,452 ± 209 pg/mL
same,p24 production,[5]; AAT 3 mg/ml,179 ± 79 pg/mL
same,percent reduction of p24 compared to IL-18 alone,[5]; AAT 1 mg/ml,65±1.8%
same,percent reduction of p24 compared to IL-18 alone,[5]; AAT 2 mg/ml,93±3.0%
same,percent reduction of p24 compared to IL-18 alone,[5]; AAT 3 mg/ml,98±1%
same,range of inhibition of HIV-1 production in U1 cells,"[5]; all stimuli tested (IL-18, IL-6, TNF, LPS, hyperosmolarity)",73-100%
same,p24 antigen,[6]; AAT 1 mg/ml,"1,108±241 pg/ml"
same,p24 antigen,[6]; AAT 2 mg/ml,913 ± 287 pg/mL
same,p24 antigen,[6]; AAT 5 mg/ml,626 ± 257 pg/mL
same,inhibition of LPS-induced p24 production,[6]; AAT 3 mg/ml,71%
same,inhibition of LPS-induced p24 production,[6]; AAT 4 mg/ml,90%
same,inhibition of LPS-induced p24 production,[6]; AAT 5 mg/ml,86%
